Experimental data from US7211576B2, “Diaminothiazoles” (Hoffmann-La Roche Inc., priority 2004, dated 2007).

Key:
human cyclin E-CDK2 = human cyclin E-CDK2 (Homo sapiens, UniProt P24941); test: FlashPlate kinase assay, cyclin E-CDK2; assay type: biochemical; conditions: Rb protein substrate, 1 μM ATP, 33P-ATP, 30 minutes room temperature
Protocol: (§1) To determine inhibition of Cdk4, Cdk2 and Cdk1 activity, kinase assays were conducted using FlashPlate™ assays (NEN™-Life Science Products). FlashPlate assays were performed using recombinant human cyclin B-CDK1, human cyclin E-CDK2 or human cyclin D1-CDK4 complexes. GST-cyclinE (GST-cycE), CDK2, GST-cyclinB (GST-cycB), CDK1, GST-CDK4 and cyclin D1 (cycD1) cDNA clones in baculovirus vectors were provided by Dr. W. Harper at the Baylor College of Medicine, Houston, Tex. Proteins were co-expressed in High Five™ insect cells and the complex was purified on glutathione Sepharose resin (Pharmacia, Piscataway, N.J.) as previously described (Harper, J. W. et al. Cell 1993, 75, 805–816). A 6×-Histidine tagged truncated form of retinoblastoma (Rb) protein (amino acid 386–928) was used as the substrate for the cycD1-CDK4, cycB-CDK1 and the cycE-CDK2 assays (the expression plasmid was provided by Dr. Veronica Sullivan, Department of Molecular Virology, Roche Research Centre, Welwyn Garden City, United Kingdom). The Rb protein is a natural substrate for phosphorylation by CDK4, CDK2 and CDK1 (see Herwig and Strauss Eur. J. Biochem. Vol. 246 (1997) pp. 581–601 and the references cited therein).
(§2) The expression of the 62Kd protein was under the control of an IPTG inducible promoter in an M15 E. coli strain. Cells were lysed by sonication and purification was carried out by binding lysates at pH 8.0 to a Ni-chelated agarose column pretreated with 1 mM imidazole. The resin was then washed several times with incrementally decreasing pH buffers to pH 6.0, and eluted with 500 mM imidazole. Eluted protein was dialysed against 20 mM HEPES pH 7.5, 30% glycerol, 200 mM NaCl, and 1 mM DTT. Purified Rb fusion protein stocks were quantitated for protein concentration, aliquoted, and stored at −70° C.
(§3) For all three kinase assays reported herein, 96-well FlashPlates were coated with Rb protein at 10 μg/ml, using 100 μl per well. Plates were incubated at 4° C. overnight or at room temperature for 3 hours on a shaker. To control for nonspecific phosphorylation, one row of wells was coated with 100 μl/well coating buffer (20 mM HEPES, 0.2 M NaCl). Plates were then washed twice with wash buffer (0.01% Tween 20 in phosphate-buffered saline). Compounds to be tested (“test compounds”) were added to the wells at 5× final concentration. Reactions were initiated by immediate addition of 40 μl reaction mix (25 mM HEPES, 20 mM MgCl2, 0.002% Tween 20, 2 mM DTT, 1 μM ATP, 4 nM ^33P-ATP) and a sufficient amount of enzyme to give counts that were at least 10-fold above background. Plates were incubated at room temperature on a shaker for 30 minutes. Plates were washed four times with the wash buffer, sealed, and counted on the TopCount scintillation counter (Packard Instrument Co., Downers Grove, Ill.]. The percent inhibition of Rb phosphorylation, which is a measure of the inhibition of CDK activity, was determined according to the following formula:
(§4) [formula] where “test compound” refers to the average counts per minute of the test duplicates, “nonspecific” refers to the average counts per minute when no CyclinD/Cdk4, etc., was added, and “total” refers to the average counts per minute when no compound was added. The IC50 value is the concentration of test compound that reduces by 50% the protein-kinase induced incorporation of the radiolabel under the test conditions described.

human cyclin D1-CDK4 = human cyclin D1-CDK4 (Homo sapiens, UniProt P11802); test: FlashPlate kinase assay, cyclin D1-CDK4; assay type: biochemical; conditions: Rb protein substrate, 1 μM ATP, 33P-ATP, 30 minutes room temperature; read-out: CDK4 IC50
Protocol: To determine inhibition of Cdk4, Cdk2 and Cdk1 activity, kinase assays were conducted using FlashPlate™ assays (NEN™-Life Science Products). FlashPlate assays were performed using recombinant human cyclin B-CDK1, human cyclin E-CDK2 or human cyclin D1-CDK4 complexes. GST-cyclinE (GST-cycE), CDK2, GST-cyclinB (GST-cycB), CDK1, GST-CDK4 and cyclin D1 (cycD1) cDNA clones in baculovirus vectors were provided by Dr. W. Harper at the Baylor College of Medicine, Houston, Tex.
as §2, §3
[formula] where “test compound” refers to the average counts per minute of the test duplicates, “nonspecific” refers to the average counts per minute when no CyclinD/Cdk4, etc., was added, and “total” refers to the average counts per minute when no compound was added.

human cyclin B-CDK1 = human cyclin B-CDK1 (Homo sapiens, UniProt P06493); test: FlashPlate kinase assay, cyclin B-CDK1; assay type: biochemical; conditions: Rb protein substrate, 1 μM ATP, 33P-ATP, 30 minutes room temperature
Protocol: as §1, §2, §3, §4

[1] = test system: HCT116, a colorectal carcinoma cell line; test: Tetrazolium dye (MTT) proliferation assay; assay type: cell-based; conditions: Homo sapiens, HCT-116; HCT116 cells, inhibition of cell proliferation
Protocol: Proliferation was evaluated by the tetrazolium dye assay according to the procedure of Denizot and Lang (Denizot, F. and Lang, R. J Immunol Methods 1986, 89, 271–277). The cell line used was HCT116, a colorectal carcinoma cell line obtained from the American Type Cell Culture Collection (ATCC; Rockville, Md.). The cells were grown in McCoy's 5A medium supplemented with 10% FCS and L-glutamine.
Cells were plated at the appropriate seeding density to give logarithmic growth over the course of the assay in a 96-well tissue culture plate. Plates were incubated overnight at 37° C. in a humidified incubator with 5% CO2. The next day, test compounds were serially diluted to four times the final concentration in the appropriate medium containing 1.2% DMSO. One-fourth final volume of each dilution was added in duplicate to the plates containing cells. The same volume of 1.2% DMSO in medium was added to a row of “control wells” such that the final concentration of DMSO in each well was 0.3%. Wells to which no cells were added served as the “blank.” Wells to which no inhibitor was added served as “no inhibitor control.” The plates were) returned to the incubator, and at set time points (determined by their growth curves) plates were analyzed as described below.
3-(4,5-dimethylthiazole-2-yl)-2,5-diphenyl-2H-tetrazolium bromide (thiazolyl blue; MTT; Sigma) was added to each well to yield a final concentration of 1 mg/ml. Plates were returned to the incubator for 2.5–3 hours at 37° C. The MTT-containing medium was removed and the resulting formazan metabolite was solubilized in 100% ethanol with shaking for 15 minutes at room temperature. Absorbance readings were taken in a microtiter plate reader (Dynatech and Molecular Devices plate readers were used interchangeably) at a wavelength of 570 nm with a 650 nm reference. Percent inhibition (% INH) is calculated by subtracting the absorbance of the blank well from all wells, then subtracting the ratio of the average absorbance of each test duplicate (SAVE) by the average of the controls (CAVE) from 1.00. The final number is then multiplied by 100 (% INH=(1.00−SAVE/CAVE)×100). The concentration at which 50% inhibition of cell proliferation is obtained (the IC50) is determined from the linear regression of a plot of the logarithm of the concentration versus percent inhibition.

Chain of human cyclin B-CDK1 (P06493 whole entry): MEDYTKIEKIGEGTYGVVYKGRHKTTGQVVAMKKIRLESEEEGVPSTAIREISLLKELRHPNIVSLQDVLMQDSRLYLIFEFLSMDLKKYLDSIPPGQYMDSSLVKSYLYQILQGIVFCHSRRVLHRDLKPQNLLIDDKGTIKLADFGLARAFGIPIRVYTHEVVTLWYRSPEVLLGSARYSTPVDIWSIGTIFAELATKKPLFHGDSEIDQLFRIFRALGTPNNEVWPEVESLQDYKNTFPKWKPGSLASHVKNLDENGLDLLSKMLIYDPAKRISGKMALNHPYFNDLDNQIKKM
Chain of human cyclin B-CDK1 (P14635 whole entry partner): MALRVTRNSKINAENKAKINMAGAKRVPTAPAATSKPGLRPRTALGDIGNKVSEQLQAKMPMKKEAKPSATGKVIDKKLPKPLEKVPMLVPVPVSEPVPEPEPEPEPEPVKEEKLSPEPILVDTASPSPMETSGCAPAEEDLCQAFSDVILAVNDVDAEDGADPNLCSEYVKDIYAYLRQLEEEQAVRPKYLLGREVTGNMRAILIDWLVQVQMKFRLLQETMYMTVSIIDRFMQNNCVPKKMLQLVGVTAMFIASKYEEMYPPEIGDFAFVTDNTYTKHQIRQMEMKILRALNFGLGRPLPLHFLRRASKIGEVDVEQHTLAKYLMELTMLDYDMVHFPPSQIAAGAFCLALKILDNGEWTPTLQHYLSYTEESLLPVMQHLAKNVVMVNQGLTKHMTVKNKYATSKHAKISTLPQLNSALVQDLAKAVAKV
Chain of human cyclin D1-CDK4 (P11802 whole entry): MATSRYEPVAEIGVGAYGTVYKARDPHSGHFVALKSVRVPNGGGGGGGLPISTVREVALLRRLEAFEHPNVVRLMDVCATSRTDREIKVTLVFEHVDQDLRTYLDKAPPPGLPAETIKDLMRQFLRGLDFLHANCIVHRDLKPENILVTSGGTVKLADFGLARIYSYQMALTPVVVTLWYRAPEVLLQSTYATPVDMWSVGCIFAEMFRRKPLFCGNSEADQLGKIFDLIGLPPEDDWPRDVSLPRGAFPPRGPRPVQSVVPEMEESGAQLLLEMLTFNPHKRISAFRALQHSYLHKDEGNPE
Chain of human cyclin D1-CDK4 (P24385 whole entry partner): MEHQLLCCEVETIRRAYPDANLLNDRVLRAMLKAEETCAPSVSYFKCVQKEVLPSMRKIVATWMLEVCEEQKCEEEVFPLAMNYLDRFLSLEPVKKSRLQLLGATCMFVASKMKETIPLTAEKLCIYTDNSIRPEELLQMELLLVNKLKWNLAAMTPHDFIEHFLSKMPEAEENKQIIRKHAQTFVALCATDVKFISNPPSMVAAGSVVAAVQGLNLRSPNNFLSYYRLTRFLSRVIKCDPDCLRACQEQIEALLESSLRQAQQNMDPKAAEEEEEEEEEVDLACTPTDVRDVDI

IC50 (human cyclin E-CDK2)	IC50 (human cyclin D1-CDK4)	IC50 (human cyclin B-CDK1)	IC50 [1]	Compound
2890 nM	12 nM	1280 nM	1750 nM	COc1ccc(C(=O)c2sc(Nc3ccc(N4CCC(N5CCCC5)CC4)cc3)nc2N)cc1F [Example 23]
860 nM	32 nM	270 nM	1220 nM	Nc1nc(Nc2ccc(N3CCC(N4CCCC4)CC3)cc2)sc1C(=O)c1cccc(F)c1 [Example 24, {4-Amino-2-[4-(4-pyrrolidin-1-yl-piperidin-1-yl)-phenylamino]-thiazol-5-yl}-(3-fluoro-phenyl)-methanone]
	5260 nM	4050 nM	15 nM	Nc1nc(Nc2ccc(N3CCC(N4CCCC(O)C4)CC3)cc2)sc1C(=O)c1ccc2c(c1)OCCO2 (stereo not shown) [Example 38, {4-Amino-2-[4-(3-hydroxy-[1,4′]bipiperidinyl-1′-yl)-phenylamino]-thiazol-5-yl}-(2,3-dihydro-benzo[1,4]dioxin-6-yl)-methanone]
4440 nM	133 nM	2990 nM		CN(C)C1CCN(c2ccc(Nc3nc(N)c(C(=O)c4ccc(Cl)c([N+](=O)[O-])c4)s3)cc2)CC1 [Example 87, {4-Amino-2-[4-(4-dimethylamino-piperidin-1-yl)-phenylamino]-thiazol-5-yl}-(4-chloro-3-nitro-phenyl)-methanone]
2260 nM	100 nM	510 nM		Nc1nc(Nc2ccc(N3CCC(N4CCCCC4)CC3)cc2)sc1C(=O)c1cccc([N+](=O)[O-])c1 [Example 89, [4-Amino-2-(4-[1,4′]bipiperidinyl-1′-yl-phenylamino)-thiazol-5-yl]-(3-nitro-phenyl)-methanone]
4060 nM	37 nM	1180 nM		Nc1nc(Nc2ccc(N3CCC(N4CCCC4)CC3)cc2)sc1C(=O)c1cccc(O)c1 [Example 96, {4-Amino-2-[4-(4-pyrrolidin-1-yl-piperidin-1-yl)-phenylamino]-thiazol-5-yl}-(3-hydroxy-phenyl)-methanone]
550 nM	35 nM	450 nM		Nc1nc(Nc2ccc(N3CCC(N4CCOCC4)CC3)cc2)sc1C(=O)c1cccc(F)c1 [Example 99, {4-Amino-2-[4-(4-morpholin-4-yl-piperidin-1-yl)-phenylamino]-thiazol-5-yl}-(3-fluoro-phenyl)-methanone]
4800 nM	29 nM	1990 nM		COc1cccc(C(=O)c2sc(Nc3ccc(N4CCC(N5CCOCC5)CC4)cc3)nc2N)c1 [Example 102, {4-Amino-2-[4-(4-morpholin-4-yl-piperidin-1-yl)-phenylamino]-thiazol-5-yl}-(3-methoxy-phenyl)-methanone]
3340 nM	36 nM	1520 nM		Nc1nc(Nc2ccc(N3CCC(N4CCOCC4)CC3)cc2)sc1C(=O)c1cccc(O)c1 [Example 103, {4-Amino-2-[4-(4-morpholin-4-yl-piperidin-1-yl)-phenylamino]-thiazol-5-yl}-(3-hydroxy-phenyl)-methanone]
1510 nM	39 nM	1280 nM		Nc1nc(Nc2ccc(N3CCC(N4CCOCC4)CC3)cc2)sc1C(=O)c1cccc([N+](=O)[O-])c1 [Example 105, {4-Amino-2-[4-(4-morpholin-4-yl-piperidin-1-yl)-phenylamino]-thiazol-5-yl}-(3-nitro-phenyl)-methanone]
4830 nM	52 nM	2270 nM		COc1ccc(C(=O)c2sc(Nc3ccc(N4CCC(N5CCOCC5)CC4)cc3)nc2N)cc1[N+](=O)[O-] [Example 106, {4-Amino-2-[4-(4-morpholin-4-yl-piperidin-1-yl)-phenylamino]-thiazol-5-yl}-(4-methoxy-3-nitro-phenyl)-methanone]
	25 nM	1990 nM	2700 nM	Cc1cccc(C(=O)c2sc(Nc3ccc(N4CCC(N(C)C)CC4)cc3)nc2N)c1 [Example 110, {4-Amino-2-[4-(4-dimethylamino-piperidin-1-yl)-phenylamino]-thiazol-5-yl}-tolyl-methanone]
	25 nM		1610 nM	Cc1cccc(C(=O)c2sc(Nc3ccc(N4CCC(N5CCCCC5)CC4)cc3)nc2N)c1 [Example 111, [4-Amino-2-(4-[1,4′]bipiperidinyl-1′-yl-phenylamino)-thiazol-5-yl]-tolyl-methanone]
4320 nM	67 nM	11400 nM		CCOC(=O)c1cc2ccc(C(=O)c3sc(Nc4ccc(N5CCC(N6CCCC6)CC5)cc4)nc3N)cc2[nH]1 [Example 124]
	32 nM	385 nM	1400 nM	CCNC1CCN(c2ccc(Nc3nc(N)c(C(=O)c4cccc(F)c4)s3)cc2)CC1 [Example 137, {4-Amino-2-[4-(4-ethylamino-piperidin-1-yl)-phenylamino]-thiazol-5-yl}-(3-fluoro-phenyl)-menthanone]

Compound	IC50 (human cyclin E-CDK2)	IC50 (human cyclin D1-CDK4)	IC50 (human cyclin B-CDK1)	IC50 [1]
CN(C)C1CCN(c2ccc(Nc3nc(N)c(C(=O)c4cccc(C#N)c4)s3)cc2)CC1 [Example 88, 3-{4-Amino-2-[4-(4-dimethylamino-piperidin-1-yl)-phenylamino]-thiazole-5-carbonyl}-benzonitrile]	3910 nM	15 nM	940 nM	
N#Cc1cccc(C(=O)c2sc(Nc3ccc(N4CCC(N5CCOCC5)CC4)cc3)nc2N)c1 [Example 104, 3-{4-Amino-2-[4-(4-morpholin-4-yl-piperidin-1-yl)-phenylamino]-thiazole-5-carbonyl}-benzonitrile]	2000 nM	31 nM	1280 nM	
